Data published in paper PMC10065791 (eLife, 2023).

Experiments:
[1] = test system: wild-type virus NL4-3; test: TZM infection assay (cell culture-based viral inhibition), wild-type virus; design: species or system HIV-1; settings: Human immunodeficiency virus 1, NL43; wild-type NL4-3 virus; concentration at time of virus production reducing infectivity by 50%; TZM-bl readout
Protocol: PI dilutions were prepared by taking 10 µM stocked and performing a fivefold serial dilution using RPMI media (final drug concentration is […]). One dilution of drug was added to each well of a 24-well plate and repeated so each virus would have a full set of dilutions. Viruses for the assay were made by seeding 3 × 10^6 CEM cells in a 24-well plate and incubating with 250 µl of virus at 37°C for 2–3 hr before bringing the culture to 10 ml with RPMI media. After 48 hr, the medium was changed and repeated every 48 hr after until the culture had undergone CPE. Infected CEM cells were collected and diluted so that 1 ml of cells could be plated in each well containing a unique drug dilution. Then 24 hr later the virus supernatant was collected from each well followed by filtering through a […] then placed in –80°C. Viruses were thawed and added to 96-well plates in triplicate. TZM-bl cells were collected and diluted to a concentration of 2 × 10^5 cells/ml, 100 µl were added on top of the pre-plated viruses. Plates were kept in 37°C, 5% CO2 in an incubator for 48 hr. After 48 hr, the cells in the plates were lysed by removing the medium, washing two times with 100 µl PBS, and then lysed with 1× lysis buffer (made from 5× Promega Firefly Lysis Buffer). Plates were frozen for at least 24 hr and then thawed for 2 hr before analyzing with Promega Firefly Luciferase Kit on a luminometer. Data was analyzed with Prism 7 to fit sigmoidal dose–response curves.

[2] = test system: HIV-1 NL4-3 wild-type virus; test: Selection for resistance in CEMx174 culture with escalating inhibitor, start wild-type virus, Primer ID deep sequencing; type: cell-based
Protocol: . The selection experiments were performed under two separate starting conditions: first when the starting virus was generated from the NL4-3 clone (this clone closely approximates the clade B consensus for the protease amino acid sequence and will be referred to as ‘wild type’), then again when the starting virus was a mixture of 26 isogenic viruses each with a single mutation associated with drug resistance in the NL4-3 background. […]. For technical reasons, only five of the selections starting with the mixture of mutants reached an inhibitor concentration as high as 400 nM and are reported here (Figure 2—figure supplement 3).
Resistance mutations selected in the protease coding domain during the escalating selective pressure of increasing PI concentration were examined at various timepoints using a next-generation sequencing (NGS) protocol that included Primer ID with the MiSeq platform ([Zhou et al., 2015]). We first examined the sequence of the most abundant variant in each of the two selection schemes present at the highest inhibitor concentration reached (Figure 2A). For those selections that reached 5 μM, 8–14 mutations were present in the most abundant variant. Typically the next two most abundant variants in the population differed by a single amino acid, and on average the three most abundant variants in the 5 μM cultures accounted for 88% of the total viral population (Figure 2—source data 1). Evolution of resistance followed two pathways, one based on I50V and one based on I84V. In three cultures, V2wt, V5wt, and V2mut (which reached either 4 or 5 μM final drug concentration; V2wt indicates the virus pool selected with UMASS-2 starting with wild-type virus), these two mutations, I84V and I50V, became linked on the same genome (Figure 2A) showing they are not mutually exclusive; […].
An aliquot of 3 × 10^6 CEMx174 cells was incubated at 37°C for 2–3 hr with 250 µl of a virus stock generated from the HIV-1 infectious molecular clone pNL4-3. The culture volume was then brought to 10 ml with RPMI medium. […] After 48 hr and every 48 hr after, the cells were pelleted by centrifugation and 10 ml of fresh medium and inhibitors were added. When the culture had undergone extensive cytopathic effect (CPE) indicative of viral replication, the supernatant medium and the cells were harvested separately and stored at –80°C. The virus-containing supernatant was used to start the next round of infection, and after several rounds at the initial concentration, the inhibitor concentration was increased 1.5-fold at each subsequent round of virus passage.
We used the PID protocol to prepare MiSeq PID libraries with multiplexed primers. Viral RNA was extracted from plasma samples using the QIAamp viral RNA mini kit (QIAGEN, Hilden, Germany). Complementary DNA (cDNA) was synthesized using a cDNA primer mixture targeting protease (PR) with a block of random nucleotides in each cDNA primer serving as the PID, and SuperScript III RT (Thermo Fisher). After two rounds of bead purification of the cDNA, we amplified the cDNA using a mixture of a forward primer that targeted the upstream coding region, followed by a second round of PCR to incorporate the Illumina adaptor sequences. Gel-purified libraries were pooled and sequenced using the MiSeq 300 base paired-end sequencing protocol (Illumina). The sequencing covered the HIV-1 PR region (HXB2 2648-2914, 3001-3257).
We used the Illumina bcl2fastq pipeline for the initial processing and constructed template consensus sequences (TCSs) with TCS pipeline version 1.33 (https://github.com/SwanstromLab/PID) ([Zhou, 2019]). We then aligned TCSs to an HXB2 reference to remove sequences not at the targeted region or that had large deletions. We used the Entropy tool at LANL (https://www.hiv.lanl.gov/content/sequence/ENTROPY/entropy.html) to calculate entropy for each specimen. The sequencing data is available at NIH Sequencing Read Archive (SRA) under BioProject ID PRJNA853351.

CC[C@H](C)CN(C[C@@H](O)[C@H](Cc1ccccc1)NC(=O)O[C@H]1CO[C@H]2OCC[C@H]21)S(=O)(=O)c1ccc(CO)cc1 [UMASS-3]
EC50 [1]: 9.1 ± 1 nM | Abundance of variant at the last time point ([2]; variant 10F/33F/46I/47V/50V/53L/63P/71V/76S/82I, passage 93, [PI] 5000 nM): 0.9% | Abundance of variant at the last time point ([2]; variant 10F/33F/46I/47V/50V/53L/63P/71V/76S/82I/85V/89I, passage 93, [PI] 5000 nM): 85.7% | Abundance of variant at the last time point ([2]; variant 10F/33F/46I/47V/50V/53L/63P/71V/76S/82I/85V/89I/91S, passage 93, [PI] 5000 nM): 1.1%

CC[C@H](C)CN(C[C@@H](O)[C@H](Cc1ccccc1)NC(=O)O[C@H]1CO[C@H]2OCC[C@H]21)S(=O)(=O)c1ccc2c(c1)OCO2 [UMASS-4]
EC50 [1]: 3.2 ± 0.4 nM | Abundance of variant at the last time point ([2]; variant 10F/11I/13V/32I/33F/43T/46L/54L/71V/82I/84V/89M/91S/92R, passage 81, [PI] 5000 nM): 87.3% | Abundance of variant at the last time point ([2]; variant 10F/11I/32I/33F/43T/46L/54L/71V/82I/84V/89M/91S, passage 81, [PI] 5000 nM): 1.3% | Abundance of variant at the last time point ([2]; variant 10F/11I/32I/33F/46L/54L/71V/82I/84V/89M/91S, passage 81, [PI] 5000 nM): 1.1%

CC[C@H](C)CN(C[C@@H](O)[C@H](Cc1ccccc1)NC(=O)O[C@H]1CO[C@H]2OCC[C@H]21)S(=O)(=O)c1ccc2ncsc2c1 [UMASS-5]
EC50 [1]: 4 ± 0.5 nM | Abundance of variant at the last time point ([2]; variant 10F/15V/46I/47V/50V/53L/71V/82I/84V/89T, passage 77, [PI] 5000 nM): 67.9% | Abundance of variant at the last time point ([2]; variant 10F/46I/47V/50V/53L/63P/71V/82I/84V/89M, passage 77, [PI] 5000 nM): 8.8% | Abundance of variant at the last time point ([2]; variant 10F/46I/47V/50V/53L/71V/82I/84V/89T, passage 77, [PI] 5000 nM): 10.9%

CCC(CC)CN(C[C@@H](O)[C@H](Cc1ccccc1)NC(=O)O[C@H]1CO[C@H]2OCC[C@H]21)S(=O)(=O)c1ccc(N)cc1 [UMASS-6]
EC50 [1]: 5.2 ± 0.8 nM | Abundance of variant at the last time point ([2]; variant 10F/13V/16E/33F/46I/47A/50V/53L/71V, passage 46, [PI] 5000 nM): 2.2% | Abundance of variant at the last time point ([2]; variant 10F/13V/33F/46I/47A/50V/53L/63P/71V, passage 46, [PI] 5000 nM): 42.3% | Abundance of variant at the last time point ([2]; variant 10F/13V/33F/46I/47A/50V/53L/71V, passage 46, [PI] 5000 nM): 45.1%

CCC(CC)CN(C[C@@H](O)[C@H](Cc1ccccc1)NC(=O)O[C@H]1CO[C@H]2OCC[C@H]21)S(=O)(=O)c1ccc(OC)cc1 [UMASS-7]
EC50 [1]: 3.1 ± 0.5 nM | Abundance of variant at the last time point ([2]; variant 10F/13V/33F/46I/47V/50V/53L/54L/67Y/71V/82I, passage 76, [PI] 5000 nM): 0.2% | Abundance of variant at the last time point ([2]; variant 10F/13V/33F/46I/47V/50V/53L/54L/71V/82I, passage 76, [PI] 5000 nM): 94.5% | Abundance of variant at the last time point ([2]; variant 10F/13V/33F/46I/47V/50V/53L/54L/71V/82I/87K, passage 76, [PI] 5000 nM): 0.2%

CCC(CC)CN(C[C@@H](O)[C@H](Cc1ccccc1)NC(=O)O[C@H]1CO[C@H]2OCC[C@H]21)S(=O)(=O)c1ccc2c(c1)OCO2 [UMASS-9]
EC50 [1]: 6.4 ± 1.2 nM | Abundance of variant at the last time point ([2]; variant 10F/13V/33F/41K/45R/46I/47V/50V/53L/54L/66F/71V/74A/76S/82I, passage 78, [PI] 5000 nM): 0.7% | Abundance of variant at the last time point ([2]; variant 10F/13V/33F/45R/46I/47V/50V/53L/54L/66F/71V/74A/76S/82I, passage 78, [PI] 5000 nM): 92.3% | Abundance of variant at the last time point ([2]; variant 10F/13V/33F/45R/46I/47V/50V/53L/54L/66F/71V/74A/76S/82I/87K, passage 78, [PI] 5000 nM): 0.4%
